Results taken from patent US7754462B2, “Enzyme catalysis in the presence of ionic liquids” (priority 2000, dated 2010).

Key:
Assay type in all cases: biochemical
[1] = molecular target: T1, Lipase from Candida antarctica (Type B) (Moesziomyces antarcticus, UniProt P41365); test: Enantioselective acylation of R,S-1-phenylethanol in ionic liquids; settings: 24° C., 3-4 days
Description: (§1) 4.4 ml of an ionic liquid in accordance with Table 3 or tert-butylmethyl ether are mixed with 122 μl of vinyl acetate and 54 μl of 1-phenyl ethanol so that a substrate solution with approximately 0.1 mol/l of 1-phenyl ethanol and 0.3 mol/l of vinyl acetate is obtained. Each 1 mg of lyophilised lipase (>120 U/mg) is mixed with 0.4 ml of substrate solution, thoroughly mixed and incubated at 24° C. for 3-4 days, shaking slightly.
(§2) This hexane/isopropanol extract is used to determine the concentrations and enantiomer ratios of 1-phenyl ethanol and 1-phenylethyl acetate using HPLC. The conversion and the enantiomer excess were calculated from these concentrations (see Table 3).

[2] = tested on: Lipase from Pseudomonas sp.; test: Enantioselective acylation of R,S-1-phenyl ethanol in ionic liquids; design: key: (+) good to better; (±) the same
Description: as §1
For further processing 100 μl of the reaction formulation is mixed with 1 ml of n-hexane/Isopropanol (97.5/2.5 v/v) and mixed thoroughly. This hexane/isopropanol extract is used to determine the concentrations and enantiomer ratios of 1-phenyl ethanol and 1-phenylethyl acetate using HPLC. The conversion and the enantiomer excess were calculated from these concentrations (see Table 3).
Each 3 mg of lyophilised lipase (400 U/mg) is mixed with 0.4 ml of a substrate solution as in Example 3. The further procedure corresponds to that described in Example 3.

[3] = molecular target: T1, Lipase from Candida antarctica (Type B); test: Recycling of the lipase in ionic liquid by distillation; settings: 40 min at 40° C.; distillation 85° C., 0.06 mbar
Description: 600 mg of lyophilised lipase (approx. 10 U/mg) is mixed with 4 ml of ionic liquid (BMIm^+(CF3SO2)2N^−), 1.2 ml of vinyl acetate and 0.7 ml 1-phenyl ethanol and thoroughly mixed. The reaction mixture is incubated for 40 min at 40° C.
The non-converted educts and the reaction product […] is then distilled off (85° C., 0.06 mbar).
The enzyme/ionic liquid mixture is cooled, re-mixed with 1.2 ml of vinyl acetate and 0.7 ml of 1-phenyl ethanol and again incubated for 40 min at 40° C.

[4] = tested on: Lipase from Alcaligines sp.; test: Enantioselective acylation of R,S-1-phenyl ethanol in ionic liquids
Description: as §1, §2

[5] = tested on: Lipase from Candida antarctica (Type A); test: as above
Description: as §1, §2

[6] = molecular target: T2, Formate dehydrogenase from Candida boidinii (FDH) (Candida boidinii, UniProt O13437); test: NAD reduction by formate dehydrogenase; enzyme activity with buffer replaced by ionic liquid; design: key: (+) good to better; (±) the same; settings: 25° C., pH 7
T2 sequence (O13437 1-364): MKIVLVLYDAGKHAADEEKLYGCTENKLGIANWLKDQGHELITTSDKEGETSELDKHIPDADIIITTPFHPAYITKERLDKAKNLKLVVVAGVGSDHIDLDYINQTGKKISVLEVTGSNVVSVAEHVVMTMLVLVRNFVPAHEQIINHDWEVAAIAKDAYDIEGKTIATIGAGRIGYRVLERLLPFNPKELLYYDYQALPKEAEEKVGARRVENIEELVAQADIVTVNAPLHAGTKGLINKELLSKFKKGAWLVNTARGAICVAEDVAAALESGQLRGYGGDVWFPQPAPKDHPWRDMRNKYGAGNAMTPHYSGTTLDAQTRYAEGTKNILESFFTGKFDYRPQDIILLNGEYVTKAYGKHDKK
Description: The FDH-catalysed oxidation of formic acid to carbon dioxide by the reduction of nicotinamide adenine dinucleotide (NAD^+ to NADH+H^+) is used as the test reaction to determine the enzyme activity. In the enzyme assay the increase in NADH with time at 25° C. is detected photometrically at a wavelength of 340 nm.
Composition of the enzyme assay: 1 ml buffer solution (50 mM triethanolamine hydrochloride, 1 mM dithiothreitol, hydrochloric acid) pH 7 is mixed with 0.1 ml of aqueous sodium formate solution (2.4 M) and 0.1 ml of enzyme solution (0.7 mg/ml, 8.4 U). The enzyme solution already contains the cofactor NAD (6 mM).

T1 sequence (P41365 26-342): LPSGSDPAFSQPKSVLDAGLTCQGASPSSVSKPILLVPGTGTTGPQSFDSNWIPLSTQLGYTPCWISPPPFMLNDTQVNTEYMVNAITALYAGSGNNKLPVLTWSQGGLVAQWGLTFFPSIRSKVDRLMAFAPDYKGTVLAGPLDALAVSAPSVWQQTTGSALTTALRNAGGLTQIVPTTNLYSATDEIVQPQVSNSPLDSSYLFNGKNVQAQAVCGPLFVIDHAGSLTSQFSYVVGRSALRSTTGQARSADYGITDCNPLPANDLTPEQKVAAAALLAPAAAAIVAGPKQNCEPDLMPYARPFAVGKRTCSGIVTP

Compound	Conversion compared to the standard reaction in tert-butylmethyl ether [1]	Enantiomer excess compared to the standard reaction in tert-butylmethyl ether [1]	Conversion compared to the standard reaction in tert-butylmethyl ether [2]	Enantiomer excess compared to the standard reaction in tert-butylmethyl ether [2]	lipase activity on repeated incubation and distilling off [3]	Conversion compared to the standard reaction in tert-butylmethyl ether [4]	Enantiomer excess compared to the standard reaction in tert-butylmethyl ether [4]	Conversion compared to the standard reaction in tert-butylmethyl ether [5]	Enantiomer excess compared to the standard reaction in tert-butylmethyl ether [5]	enzyme activity compared with the standard reaction in the buffer solution ([6]; 25 vol % ionic liquid)	enzyme activity compared with the standard reaction in the buffer solution ([6]; 50 vol % ionic liquid)	enzyme activity compared with the standard reaction in the buffer solution ([6]; 75 vol % ionic liquid)
CCCCn1cc[n+](C)c1.O=S(=O)([N-]S(=O)(=O)C(F)(F)F)C(F)(F)F [BMIm^+ (CF3SO2)2N^−]	+	+	+	+	without the lipase activity diminishing	–	–	–	–	–	–	–
CCCCn1cc[n+](C)c1.O=S(=O)([O-])C(F)(F)F [BMIm^+ CF3SO3^−, Butyl-methyl-imidazolium-trifluoro methane sulphonate (=triflate)]	+	+	+	+	–	±	+	+	+	–	–	–
CCCCCCCCn1cc[n+](C)c1.F[B-](F)(F)F [OMIm^+ BF4^−, Octyl-methyl-imidazolium BF4^−]	+	+	–	–	–	±	+	+	±	–	–	–
CCCCn1cc[n+](C)c1.F[P-](F)(F)(F)(F)F [BMIm^+ PF6^−, Butyl-methyl-imidazolium PF6^−]	–	–	–	–	–	±	+	+	+	–	–	–
CCCCCCCCC[n+]1ccn(C)c1.F[P-](F)(F)(F)(F)F [NMIm^+ PF6^−, Nonyl-methyl-imidazolium PF6^−]	±	+	–	–	–	–	–	+	+	–	–	–
Methyl-methyl-imidazolium-methyl sulphate [MMIm^+ MeSO4^−]	–	–	–	–	–	–	–	–	–	±	+	+
CCCC[n+]1ccc(C)cc1.F[B-](F)(F)F [4-MBP^+ BF4^−, 4-methyl-butyl-pyridinium BF4^−]	+	+	±	+	–	±	+	–	–	–	–	–
CCCCCCn1cc[n+](C)c1.F[B-](F)(F)F [HMIm^+ BF4^−, Hexyl-methyl-imidazolium BF4^−]	±	+	–	–	–	±	+	+	+	–	–	–
CCCCn1cc[n+](C)c1.F[B-](F)(F)F [BMIm^+ BF4^−, Butyl-methyl-imidazolium BF4^−]	+	+	–	–	–	±	+	±	+	–	–	–
